Reference: patent US9050341B2, “Methods of treating drug resistant and other tumors by administering 6,7-dialkoxy quinazoline derivatives” (NATCO PHARMA LIMITED, priority 2009, dated 2015)

Assays:
Assay in all cases: KinomeScan kinase profiling
Type in all cases: binding
WEE1 = biological target: T1, WEE1 (Homo sapiens, UniProt P30291)
T1 construct: purchased Ambit Biosciences Corp (KinomeScan); host or cells: E. coli host derived from the BL21 strain (T7 phage lysate)
Procedure, shortened: (§1)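 Kinases were expressed as T7 phage fusions in a BL21-derived E. coli host and the cleared lysates were used. Ligand beads were blocked with biotin and buffer (1% BSA, 0.05% Tween 20, 1 mM DTT). Compounds came from 40× DMSO stocks, and phage in the eluates was titred by qPCR.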

CSK = biological target: T2, CSK (Homo sapiens, UniProt P41240)
T2 construct: host or cells: T7 phage in E. coli (BL21-derived)
Procedure, shortened: as §1

SYK = biological target: T3, SYK (Homo sapiens, UniProt P43405)
T3 construct: host or cells: E. coli host derived from the BL21 strain, T7 phage lysate
Procedure, shortened: as §1

PCTK3 = biological target: T4, PCTK3 (Homo sapiens, UniProt Q07002)
T4 construct: host or cells: E. coli host derived from the BL21 strain, infected with T7 phage
T4 sequence (Q07002 whole entry): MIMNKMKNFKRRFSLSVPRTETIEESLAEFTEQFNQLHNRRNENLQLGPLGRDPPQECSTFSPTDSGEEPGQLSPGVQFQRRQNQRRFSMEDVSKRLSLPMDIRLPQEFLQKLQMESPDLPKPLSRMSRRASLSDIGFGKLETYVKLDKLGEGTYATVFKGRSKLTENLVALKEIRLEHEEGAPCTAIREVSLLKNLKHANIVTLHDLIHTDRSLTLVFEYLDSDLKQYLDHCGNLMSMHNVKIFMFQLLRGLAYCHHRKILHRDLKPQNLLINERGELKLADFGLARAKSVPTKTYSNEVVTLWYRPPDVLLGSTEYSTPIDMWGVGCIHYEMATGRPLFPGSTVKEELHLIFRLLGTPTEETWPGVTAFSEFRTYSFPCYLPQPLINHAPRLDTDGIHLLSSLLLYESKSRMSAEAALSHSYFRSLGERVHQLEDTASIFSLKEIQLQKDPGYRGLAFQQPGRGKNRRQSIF
Procedure, shortened: as §1

p38-alpha = biological target: T5, p38-alpha (Homo sapiens, UniProt Q16539)
T5 construct: host or cells: E. coli host derived from the BL21 strain, infected with T7 phage
T5 sequence (Q16539 whole entry): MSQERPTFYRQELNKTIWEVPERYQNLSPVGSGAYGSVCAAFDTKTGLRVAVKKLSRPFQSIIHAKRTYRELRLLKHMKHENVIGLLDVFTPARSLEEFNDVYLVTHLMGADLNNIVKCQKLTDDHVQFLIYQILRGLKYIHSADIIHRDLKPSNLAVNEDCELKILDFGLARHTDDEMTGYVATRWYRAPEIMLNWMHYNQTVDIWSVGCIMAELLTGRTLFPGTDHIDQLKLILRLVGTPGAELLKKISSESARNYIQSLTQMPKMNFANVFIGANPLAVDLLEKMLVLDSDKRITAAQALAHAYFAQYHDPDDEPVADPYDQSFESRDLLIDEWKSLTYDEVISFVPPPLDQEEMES
Procedure, shortened: as §1

LTK = biological target: T6, LTK (Homo sapiens, UniProt P29376)
T6 construct: host or cells: E. coli derived from BL21, infected with T7 phage
T6 sequence (P29376 17-864): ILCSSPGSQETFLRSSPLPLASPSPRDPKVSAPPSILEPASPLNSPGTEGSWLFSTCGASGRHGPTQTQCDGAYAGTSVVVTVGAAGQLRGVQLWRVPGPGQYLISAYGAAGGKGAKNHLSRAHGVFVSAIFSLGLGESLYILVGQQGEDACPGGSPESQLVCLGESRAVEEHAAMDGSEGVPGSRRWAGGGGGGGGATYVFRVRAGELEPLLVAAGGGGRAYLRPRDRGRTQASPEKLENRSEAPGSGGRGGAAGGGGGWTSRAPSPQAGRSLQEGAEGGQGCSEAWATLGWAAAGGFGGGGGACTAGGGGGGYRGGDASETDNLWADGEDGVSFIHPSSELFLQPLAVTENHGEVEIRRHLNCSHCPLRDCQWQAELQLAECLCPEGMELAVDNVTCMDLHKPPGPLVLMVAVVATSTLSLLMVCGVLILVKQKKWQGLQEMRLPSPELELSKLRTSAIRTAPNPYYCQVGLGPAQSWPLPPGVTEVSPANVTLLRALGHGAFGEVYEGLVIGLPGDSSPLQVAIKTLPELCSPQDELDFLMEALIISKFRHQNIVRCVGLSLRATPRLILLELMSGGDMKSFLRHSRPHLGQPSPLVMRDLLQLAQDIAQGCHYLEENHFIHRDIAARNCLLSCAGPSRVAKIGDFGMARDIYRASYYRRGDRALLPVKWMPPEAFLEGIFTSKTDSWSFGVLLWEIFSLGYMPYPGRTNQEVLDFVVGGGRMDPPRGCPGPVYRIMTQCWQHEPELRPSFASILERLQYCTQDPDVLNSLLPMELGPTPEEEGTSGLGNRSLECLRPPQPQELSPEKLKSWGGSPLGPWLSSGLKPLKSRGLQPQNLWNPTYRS
Procedure, shortened: as §1

YANK3 = biological target: T7, YANK3 (Homo sapiens, UniProt Q86UX6)
T7 construct: purchased Ambit Biosciences Corp (KinomeScan); host or cells: E. coli host derived from the BL21 strain (T7 phage lysate)
Procedure, shortened: as §1

CDK7 = biological target: T8, CDK7 (Homo sapiens, UniProt P50613)
T8 construct: host or cells: T7 phage in E. coli (BL21-derived)
T8 sequence (P50613 whole entry): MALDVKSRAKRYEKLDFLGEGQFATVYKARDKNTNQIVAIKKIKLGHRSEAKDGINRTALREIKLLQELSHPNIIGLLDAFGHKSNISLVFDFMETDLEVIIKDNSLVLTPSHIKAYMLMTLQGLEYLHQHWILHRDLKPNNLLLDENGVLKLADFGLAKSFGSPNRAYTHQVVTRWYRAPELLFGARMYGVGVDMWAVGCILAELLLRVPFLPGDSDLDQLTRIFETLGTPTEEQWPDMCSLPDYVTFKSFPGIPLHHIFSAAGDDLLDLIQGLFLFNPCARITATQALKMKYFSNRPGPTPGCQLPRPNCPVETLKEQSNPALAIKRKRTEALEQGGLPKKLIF
Procedure, shortened: as §1

PIM3 = biological target: T9, PIM3 (Homo sapiens, UniProt Q86V86)
T9 construct: purchased Ambit Biosciences Corp (KinomeScan); host or cells: E. coli host derived from BL21, infected with T7 phage
Procedure, shortened: as §1

MKNK2 = biological target: T10, MKNK2 (Homo sapiens, UniProt Q9HBH9)
T10 construct: host or cells: T7 phage in E. coli host derived from BL21
T10 sequence (Q9HBH9 whole entry): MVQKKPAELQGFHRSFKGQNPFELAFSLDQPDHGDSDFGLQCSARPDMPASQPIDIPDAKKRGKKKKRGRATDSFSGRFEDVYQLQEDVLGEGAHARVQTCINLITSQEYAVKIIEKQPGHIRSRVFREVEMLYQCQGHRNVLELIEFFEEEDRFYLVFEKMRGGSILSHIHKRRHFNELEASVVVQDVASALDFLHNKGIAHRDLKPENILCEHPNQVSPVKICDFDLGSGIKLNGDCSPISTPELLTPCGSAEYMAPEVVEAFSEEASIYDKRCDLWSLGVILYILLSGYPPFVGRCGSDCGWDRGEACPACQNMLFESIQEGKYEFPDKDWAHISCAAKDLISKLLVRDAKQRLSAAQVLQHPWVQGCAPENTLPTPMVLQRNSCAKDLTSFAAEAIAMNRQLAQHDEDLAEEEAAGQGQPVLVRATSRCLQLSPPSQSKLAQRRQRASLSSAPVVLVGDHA
Procedure, shortened: as §1

CAMK1D = biological target: T11, CAMK1D (Homo sapiens, UniProt Q8IU85)
T11 construct: purchased Ambit Biosciences Corp (KinomeScan); host or cells: E. coli host derived from the BL21 strain, T7 phage
T11 sequence (Q8IU85 whole entry): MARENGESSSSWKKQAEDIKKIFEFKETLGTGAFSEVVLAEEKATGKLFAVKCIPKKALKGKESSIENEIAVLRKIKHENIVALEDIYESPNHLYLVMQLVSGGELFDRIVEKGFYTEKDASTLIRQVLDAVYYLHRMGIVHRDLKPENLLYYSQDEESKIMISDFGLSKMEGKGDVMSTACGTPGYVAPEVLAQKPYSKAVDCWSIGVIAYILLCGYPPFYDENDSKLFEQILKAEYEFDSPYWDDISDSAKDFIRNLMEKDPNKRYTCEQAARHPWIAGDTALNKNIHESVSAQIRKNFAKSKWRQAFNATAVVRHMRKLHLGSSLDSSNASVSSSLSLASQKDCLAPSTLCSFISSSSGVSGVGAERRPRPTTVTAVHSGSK
Procedure, shortened: as §1

KIT (D816V) = biological target: T12, KIT (D816V) (Homo sapiens, UniProt P10721, D816V)
T12 construct: host or cells: T7 phage in E. coli host derived from BL21
Procedure, shortened: as §1

p38-beta = biological target: T13, p38-beta (Homo sapiens, UniProt Q15759)
T13 construct: host or cells: E. coli host derived from the BL21 strain, infected with T7 phage
T13 sequence (Q15759 whole entry): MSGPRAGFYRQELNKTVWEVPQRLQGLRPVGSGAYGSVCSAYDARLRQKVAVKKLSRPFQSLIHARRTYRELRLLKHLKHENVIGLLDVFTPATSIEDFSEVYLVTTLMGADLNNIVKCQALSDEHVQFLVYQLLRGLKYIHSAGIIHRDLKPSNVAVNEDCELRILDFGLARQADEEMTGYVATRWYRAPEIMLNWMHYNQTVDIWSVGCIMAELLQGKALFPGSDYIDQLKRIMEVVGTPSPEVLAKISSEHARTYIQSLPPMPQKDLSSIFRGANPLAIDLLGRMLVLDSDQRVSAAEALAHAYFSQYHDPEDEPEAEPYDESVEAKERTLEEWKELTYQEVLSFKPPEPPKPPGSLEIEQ
Procedure, shortened: as §1

LKB1 = biological target: T14, LKB1 (Homo sapiens, UniProt Q15831)
T14 construct: host or cells: E. coli derived from BL21, infected with T7 phage
Procedure, shortened: as §1

PIP5K1A = biological target: T15, PIP5K1A (Homo sapiens, UniProt Q99755)
T15 construct: purchased Ambit Biosciences Corp (KinomeScan); host or cells: E. coli host derived from BL21, infected with T7 phage
T15 sequence (Q99755 whole entry): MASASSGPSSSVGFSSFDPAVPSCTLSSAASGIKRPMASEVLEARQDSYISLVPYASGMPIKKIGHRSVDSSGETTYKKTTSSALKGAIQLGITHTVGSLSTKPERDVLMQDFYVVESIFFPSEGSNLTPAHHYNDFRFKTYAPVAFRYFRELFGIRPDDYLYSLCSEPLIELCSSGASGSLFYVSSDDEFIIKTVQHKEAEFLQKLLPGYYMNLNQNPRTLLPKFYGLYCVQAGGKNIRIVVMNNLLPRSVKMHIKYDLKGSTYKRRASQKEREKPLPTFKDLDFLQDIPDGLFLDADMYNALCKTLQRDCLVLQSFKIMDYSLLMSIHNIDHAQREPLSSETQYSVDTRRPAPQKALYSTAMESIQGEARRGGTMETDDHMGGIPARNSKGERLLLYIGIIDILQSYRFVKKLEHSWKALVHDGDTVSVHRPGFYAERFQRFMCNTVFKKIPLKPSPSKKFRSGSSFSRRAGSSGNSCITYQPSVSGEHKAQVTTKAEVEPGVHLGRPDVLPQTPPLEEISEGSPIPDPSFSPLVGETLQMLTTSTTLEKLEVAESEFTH
Procedure, shortened: as §1

DAPK1 = biological target: T16, DAPK1 (Homo sapiens, UniProt P53355)
T16 construct: purchased Ambit Biosciences Corp (KinomeScan); host or cells: T7 phage in E. coli host derived from BL21
Procedure, shortened: as §1

EPHA7 = biological target: T17, EPHA7 (Homo sapiens, UniProt Q15375)
T17 construct: host or cells: E. coli host derived from BL21, T7 phage lysate
Procedure, shortened: as §1

EGFR (G719C) = biological target: T18, EGFR (G719C) (Homo sapiens, UniProt P00533, G719C)
T18 construct: purchased Ambit Biosciences Corp (KinomeScan); host or cells: T7 phage in E. coli host derived from BL21
Procedure, shortened: as §1

INSRR = biological target: T19, INSRR (Homo sapiens, UniProt P14616)
T19 construct: host or cells: T7 phage in E. coli host derived from BL21
Procedure, shortened: as §1

PDGFRA = biological target: T20, PDGFRA (Homo sapiens, UniProt P16234)
T20 construct: host or cells: E. coli host derived from the BL21 strain, infected with T7 phage
Procedure, shortened: as §1

DAPK2 = biological target: T21, DAPK2 (Homo sapiens, UniProt Q9UIK4)
T21 construct: purchased Ambit Biosciences Corp (KinomeScan); host or cells: T7 phage in E. coli host derived from BL21
Procedure, shortened: as §1

FGFR4 = biological target: T22, FGFR4 (Homo sapiens, UniProt P22455)
T22 construct: host or cells: E. coli host derived from BL21, infected with T7 phage
Procedure, shortened: as §1

ERK8 = biological target: T23, ERK8 (Homo sapiens, UniProt Q8TD08)
T23 construct: host or cells: E. coli host derived from BL21, T7 phage lysate
T23 sequence (Q8TD08 whole entry): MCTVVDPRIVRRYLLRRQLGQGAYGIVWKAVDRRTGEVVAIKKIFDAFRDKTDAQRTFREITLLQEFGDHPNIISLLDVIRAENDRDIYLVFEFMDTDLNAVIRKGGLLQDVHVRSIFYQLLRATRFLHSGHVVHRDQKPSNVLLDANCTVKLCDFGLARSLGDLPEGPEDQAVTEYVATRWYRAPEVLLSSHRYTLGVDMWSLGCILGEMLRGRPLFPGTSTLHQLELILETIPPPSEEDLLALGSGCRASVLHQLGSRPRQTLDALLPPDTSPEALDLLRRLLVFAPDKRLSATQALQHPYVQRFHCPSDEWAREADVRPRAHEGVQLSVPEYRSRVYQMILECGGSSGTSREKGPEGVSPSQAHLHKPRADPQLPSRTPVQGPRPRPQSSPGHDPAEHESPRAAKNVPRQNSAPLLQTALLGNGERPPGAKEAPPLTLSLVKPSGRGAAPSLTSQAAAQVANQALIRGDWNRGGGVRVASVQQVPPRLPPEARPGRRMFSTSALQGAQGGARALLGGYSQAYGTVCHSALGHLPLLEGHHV
Procedure, shortened: as §1

T1 sequence (P30291 whole entry): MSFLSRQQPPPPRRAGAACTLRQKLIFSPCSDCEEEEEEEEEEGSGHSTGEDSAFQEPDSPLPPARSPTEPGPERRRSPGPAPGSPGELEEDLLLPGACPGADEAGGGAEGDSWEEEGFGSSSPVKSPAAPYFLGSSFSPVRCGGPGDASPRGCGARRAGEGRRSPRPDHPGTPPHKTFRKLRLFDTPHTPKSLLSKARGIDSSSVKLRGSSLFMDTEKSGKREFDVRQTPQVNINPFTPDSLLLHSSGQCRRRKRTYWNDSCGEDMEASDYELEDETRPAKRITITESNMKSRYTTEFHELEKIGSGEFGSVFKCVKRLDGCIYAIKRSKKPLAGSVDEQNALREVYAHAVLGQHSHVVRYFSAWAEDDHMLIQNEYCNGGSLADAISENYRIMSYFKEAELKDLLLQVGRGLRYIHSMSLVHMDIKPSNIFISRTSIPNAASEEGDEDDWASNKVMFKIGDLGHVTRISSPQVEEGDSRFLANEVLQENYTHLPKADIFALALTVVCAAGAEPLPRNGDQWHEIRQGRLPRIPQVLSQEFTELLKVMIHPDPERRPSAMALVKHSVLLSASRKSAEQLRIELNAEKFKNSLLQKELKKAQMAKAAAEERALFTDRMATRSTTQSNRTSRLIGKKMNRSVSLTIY

Structure (SMILES): C#Cc1cccc(Nc2ncnc3cc(OC)c(OCCCN4CCOCC4)cc23)c1 [NRC-2694, N-(3-ethylnylphenyl)-7-methoxy-6-[3-(4-morpholinyl)propoxy]-4-quinazolinamine]
- % Ctrl @ 10000 nM (WEE1): 74 % Ctrl
- % Ctrl @ 10000 nM (CSK): 53 % Ctrl
- % Ctrl @ 10000 nM (SYK): 56 % Ctrl
- % Ctrl @ 10000 nM (PCTK3): 82 % Ctrl
- % Ctrl @ 10000 nM (p38-alpha): 89 % Ctrl
- % Ctrl @ 10000 nM (LTK): 3.8 % Ctrl
- % Ctrl @ 10000 nM (YANK3): 100 % Ctrl
- % Ctrl @ 10000 nM (CDK7): 0.55 % Ctrl
- % Ctrl @ 10000 nM (PIM3): 23 % Ctrl
- % Ctrl @ 10000 nM (MKNK2): 16 % Ctrl
- % Ctrl @ 10000 nM (CAMK1D): 83 % Ctrl
- % Ctrl @ 10000 nM (KIT (D816V)): 17 % Ctrl
- % Ctrl @ 10000 nM (p38-beta): 100 % Ctrl
- % Ctrl @ 10000 nM (LKB1): 69 % Ctrl
- % Ctrl @ 10000 nM (PIP5K1A): 61 % Ctrl
- % Ctrl @ 10000 nM (DAPK1): 26 % Ctrl
- % Ctrl @ 10000 nM (EPHA7): 70 % Ctrl
- % Ctrl @ 10000 nM (EGFR (G719C)): 0 % Ctrl
- % Ctrl @ 10000 nM (INSRR): 79 % Ctrl
- % Ctrl @ 10000 nM (PDGFRA): 50 % Ctrl
- % Ctrl @ 10000 nM (DAPK2): 61 % Ctrl
- % Ctrl @ 10000 nM (FGFR4): 69 % Ctrl
- % Ctrl @ 10000 nM (ERK8): 62 % Ctrl
